Data reported in PubChem BioAssay (NCI).
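Test compounds were applied to cells in 96-well plates for 48 hours at 5 doses. GI50 = concentration required for 50% inhibition of growth. TGI marks complete inhibition of growth.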

Legend:
Experiment in all cases: NCI-60 cell line screen, 48 h
SNB-75 CNS = system: SNB-75 CNS
M14 melanoma = system: M14 melanoma
RXF 393 renal = system: RXF 393 renal
SR leukemia = system: SR leukemia
SN12C renal = system: SN12C renal
TK-10 renal = system: TK-10 renal
MDA-MB-231 breast = system: MDA-MB-231 breast
MALME-3M melanoma = system: MALME-3M melanoma
DU-145 prostate = system: DU-145 prostate
ACHN renal = system: ACHN renal
OVCAR-4 ovarian = system: OVCAR-4 ovarian
HOP-92 NSCLC = system: HOP-92 NSCLC
SF-295 CNS = system: SF-295 CNS
SK-MEL-28 melanoma = system: SK-MEL-28 melanoma
HCT-116 colon = system: HCT-116 colon
NCI-H226 lung = system: NCI-H226 lung
MCF7 breast = system: MCF7 breast
SNB-19 CNS = system: SNB-19 CNS
SK-MEL-2 melanoma = system: SK-MEL-2 melanoma
OVCAR-8 ovarian = system: OVCAR-8 ovarian
SF-268 CNS = system: SF-268 CNS
HL-60(TB) leukemia = system: HL-60(TB) leukemia
RPMI-8226 leukemia = system: RPMI-8226 leukemia
NCI-H23 lung = system: NCI-H23 lung
OVCAR-5 ovarian = system: OVCAR-5 ovarian
CCRF-CEM leukemia = system: CCRF-CEM leukemia
PC-3 prostate = system: PC-3 prostate
KM12 colon = system: KM12 colon
K-562 leukemia = system: K-562 leukemia
A549 NSCLC = system: A549 NSCLC
U251 CNS = system: U251 CNS
MDA-MB-435 = system: MDA-MB-435
COLO 205 colon = system: COLO 205 colon
T-47D breast = system: T-47D breast
SW-620 colon = system: SW-620 colon
SF-539 CNS = system: SF-539 CNS
NCI-H522 lung = system: NCI-H522 lung
IGROV1 ovarian = system: IGROV1 ovarian
BT-549 breast = system: BT-549 breast
SK-OV-3 ovarian = system: SK-OV-3 ovarian
A498 renal = system: A498 renal
HT29 colon = system: HT29 colon
NCI/ADR-RES ovarian = system: NCI/ADR-RES ovarian
MOLT-4 leukemia = system: MOLT-4 leukemia
UACC-257 melanoma = system: UACC-257 melanoma
OVCAR-3 ovarian = system: OVCAR-3 ovarian
HCC-2998 colon = system: HCC-2998 colon
LOX IMVI melanoma = system: LOX IMVI melanoma
786-0 renal = system: 786-0 renal
HS 578T breast = system: HS 578T breast
NCI-H460 lung = system: NCI-H460 lung
HOP-62 NSCLC = system: HOP-62 NSCLC
EKVX NSCLC = system: EKVX NSCLC
CAKI-1 renal = system: CAKI-1 renal
SK-MEL-5 melanoma = system: SK-MEL-5 melanoma
UACC-62 melanoma = system: UACC-62 melanoma
HCT-15 colon = system: HCT-15 colon

COc1ncc(-c2ccc3nc(N)n(-c4ccccc4C(F)(F)F)c(=O)c3c2)cc1S(=O)(=O)Nc1ccc(F)cc1F
GI50 (SNB-75 CNS): 0.866 µM | TGI (SNB-75 CNS): > 100 µM | GI50 (M14 melanoma): 1.23 µM | TGI (M14 melanoma): 14.8 µM | GI50 (RXF 393 renal): 0.099 µM | TGI (RXF 393 renal): 4.46 µM | GI50 (SR leukemia): 1.35 µM | TGI (SR leukemia): 17.3 µM | GI50 (SN12C renal): 4.52 µM | TGI (SN12C renal): > 100 µM | GI50 (TK-10 renal): 6.73 µM | TGI (TK-10 renal): > 100 µM | GI50 (MDA-MB-231 breast): 0.217 µM | TGI (MDA-MB-231 breast): 0.755 µM | GI50 (MALME-3M melanoma): 6.53 µM | TGI (MALME-3M melanoma): 34.4 µM | GI50 (DU-145 prostate): 0.897 µM | TGI (DU-145 prostate): > 100 µM | GI50 (ACHN renal): 5.77 µM | TGI (ACHN renal): > 100 µM | GI50 (OVCAR-4 ovarian): 3.64 µM | TGI (OVCAR-4 ovarian): > 100 µM | GI50 (HOP-92 NSCLC): 0.432 µM | TGI (HOP-92 NSCLC): 94.5 µM | GI50 (SF-295 CNS): 1.41 µM | TGI (SF-295 CNS): 17.5 µM | GI50 (SK-MEL-28 melanoma): 3.63 µM | TGI (SK-MEL-28 melanoma): 14.1 µM | GI50 (HCT-116 colon): 1.7 µM | TGI (HCT-116 colon): 15.9 µM | GI50 (NCI-H226 lung): 8.68 µM | TGI (NCI-H226 lung): > 100 µM | GI50 (MCF7 breast): 2.05 µM | TGI (MCF7 breast): 29.4 µM | GI50 (SNB-19 CNS): 7.87 µM | TGI (SNB-19 CNS): 45.8 µM | GI50 (SK-MEL-2 melanoma): 2.28 µM | TGI (SK-MEL-2 melanoma): 11.9 µM | GI50 (OVCAR-8 ovarian): 3.55 µM | TGI (OVCAR-8 ovarian): > 100 µM | GI50 (SF-268 CNS): 2.43 µM | TGI (SF-268 CNS): > 100 µM | GI50 (HL-60(TB) leukemia): 1.42 µM | TGI (HL-60(TB) leukemia): 5.24 µM | GI50 (RPMI-8226 leukemia): 0.3 µM | TGI (RPMI-8226 leukemia): 2.54 µM | GI50 (NCI-H23 lung): 0.693 µM | TGI (NCI-H23 lung): 38.1 µM | GI50 (OVCAR-5 ovarian): 1.03 µM | TGI (OVCAR-5 ovarian): 9.81 µM | GI50 (CCRF-CEM leukemia): 1.28 µM | TGI (CCRF-CEM leukemia): 32.2 µM | GI50 (PC-3 prostate): 1.71 µM | TGI (PC-3 prostate): 73.7 µM | GI50 (KM12 colon): 1.06 µM | TGI (KM12 colon): 12.2 µM | GI50 (K-562 leukemia): 5.73 µM | TGI (K-562 leukemia): > 100 µM | GI50 (A549 NSCLC): 0.653 µM | TGI (A549 NSCLC): > 100 µM | GI50 (U251 CNS): 0.953 µM | TGI (U251 CNS): 15.3 µM | GI50 (MDA-MB-435): 1.11 µM | TGI (MDA-MB-435): 4.28 µM | GI50 (COLO 205 colon): 0.511 µM | TGI (COLO 205 colon): 1.82 µM | GI50 (T-47D breast): 0.425 µM | TGI (T-47D breast): > 100 µM | GI50 (SW-620 colon): 1.84 µM | TGI (SW-620 colon): 20 µM | GI50 (SF-539 CNS): 1.22 µM | TGI (SF-539 CNS): 20.4 µM | GI50 (NCI-H522 lung): 3.04 µM | TGI (NCI-H522 lung): 24.5 µM | GI50 (IGROV1 ovarian): 1.15 µM | TGI (IGROV1 ovarian): > 100 µM | GI50 (BT-549 breast): 1.57 µM | TGI (BT-549 breast): 6.7 µM | GI50 (SK-OV-3 ovarian): 4.85 µM | TGI (SK-OV-3 ovarian): > 100 µM | GI50 (A498 renal): 0.329 µM | TGI (A498 renal): 1.96 µM | GI50 (HT29 colon): 0.635 µM | TGI (HT29 colon): 4.53 µM | GI50 (NCI/ADR-RES ovarian): 1.94 µM | TGI (NCI/ADR-RES ovarian): 13.8 µM | GI50 (MOLT-4 leukemia): 3.85 µM | TGI (MOLT-4 leukemia): 56.1 µM | GI50 (UACC-257 melanoma): 7.81 µM | TGI (UACC-257 melanoma): 24.5 µM | GI50 (OVCAR-3 ovarian): 0.369 µM | TGI (OVCAR-3 ovarian): 3.75 µM | GI50 (HCC-2998 colon): 1.74 µM | TGI (HCC-2998 colon): 13.7 µM | GI50 (LOX IMVI melanoma): 0.224 µM | TGI (LOX IMVI melanoma): 0.761 µM | GI50 (786-0 renal): 3.16 µM | TGI (786-0 renal): 83.7 µM | GI50 (HS 578T breast): 1.3 µM | TGI (HS 578T breast): 84.4 µM | GI50 (NCI-H460 lung): 5.03 µM | TGI (NCI-H460 lung): 36.6 µM | GI50 (HOP-62 NSCLC): 0.526 µM | TGI (HOP-62 NSCLC): > 100 µM | GI50 (EKVX NSCLC): 0.86 µM | TGI (EKVX NSCLC): > 100 µM | GI50 (CAKI-1 renal): 0.122 µM | TGI (CAKI-1 renal): > 100 µM | GI50 (SK-MEL-5 melanoma): 0.273 µM | TGI (SK-MEL-5 melanoma): 0.944 µM | GI50 (UACC-62 melanoma): 3.06 µM | TGI (UACC-62 melanoma): 9.59 µM | GI50 (HCT-15 colon): 0.758 µM | TGI (HCT-15 colon): 6.96 µM
